Measured values from patent US20250134995A1, “SAPONIN-BASED ADJUVANTS AND METHODS OF CHARACTERIZING SAME” (priority 2023, published 2025).
Like-named read-outs stand apart in the source and are kept apart here.

Columns and labels:
[1] = in vitro, free QS-21; cited from earlier work
[2] = in vivo; cited from earlier work

CC(C)CCC[C@@H](C)[C@H]1CC[C@H]2[C@@H]3CC=C4C[C@@H](O)CC[C@]4(C)[C@H]3CC[C@]12C [cholesterol, cholesterol [1-2-3H (N)]]
elimination (after 168 h): lack of complete elimination | distribution to the iliac LN compared to inguinal LN and popliteal LN (after QF injection): substantial | plateau of relative activity in intestines, lungs, and bone marrow (both, CD-1 IGS, mouse, in vivo): 5-20 % ID/g tissue | plateau of relative radioactivity in plasma and kidney (both, CD-1 IGS, mouse, in vivo): 5%-20% | start of plateau of relative activity in testes, ovaries and uterus (both, CD-1 IGS, mouse, in vivo): 24 h | time at which systemic levels reached a plateau (both, CD-1 IGS, mouse, in vivo): around 24 h | time from which cholesterol levels are significantly higher than saponin levels at the injection site (both, CD-1 IGS, mouse, in vivo): 3 to 6 h | time to removal from the injection site (both, CD-1 IGS, mouse, in vivo): ≤ 48 h | decline of counts at the injection site (compared to saponin counts): slower decline | early relative radioactivity in plasma and kidney (early timepoints, in contrast to saponins): lower relative radioactivity | activity in urine (mouse, in vivo): Barely detectable activity | injected radioactive dose per gram tissue at the injection site and in the iliac LN (mouse, in vivo): high percentage | plateauing activity in spleen, heart, and brain (mouse, in vivo): lower levels | relative activity in the liver (mouse, in vivo): low levels | relative activity in the liver versus saponins (mouse, in vivo): slightly higher relative activity | reproductive organ with the highest relative activity (mouse, in vivo): highest relative activity of cholesterol detected in the ovaries

QS-21
hemolytic activity [1]: shows hemolytic activity | pain at the injection site [2]: immediate pain at the injection site

saponins
effect of presence of SARS-COV-2 antigen on relative activity in urine and kidney (mouse, in vivo): increased relative activity | excretion pathway (mouse, in vivo): rapidly excreted via the kidneys into urine | injected radioactive dose per gram tissue at the injection site and in the iliac LN (mouse, in vivo): high percentage | level in bone marrow after the peak (mouse, in vivo): declined | level in the QF and the iliac LN (mouse, in vivo): low levels | relative activity in plasma, urine, and kidney after the peak (mouse, in vivo): rapid decline | relative activity in the liver (mouse, in vivo): low levels | systemic accumulation (mouse, in vivo): do not accumulate systemically | time of highest relative activity in testes, ovaries and uterus (mouse, in vivo): 1 h | time of peak in bone marrow (mouse, in vivo): 3 h and 6 h | time of peak relative activity in plasma, urine, and kidney (mouse, in vivo): 1 to 3 h | time to near complete clearance (urine as major excretion pathway) (mouse, in vivo): ≤ 7 days | time to removal from the injection site (mouse, in vivo): ≤ 48 h
